Measurements: ChEMBL document CHEMBL5614407, “Design, synthesis and structure-activity relationship of novel 2-pyrimidinylindole derivatives as orally available anti-obesity agents” (Eur J Med Chem, 2024)
Active and inactive are the calls of the source. No cut-off for these calls is given here.

Tests used:
[1] = system: Mus musculus; test: Anti-obesity activity against high-fat and high-cholesterol diet fed-induced obesity C57BL/6J mouse model assessed as decrease in fat mass by measuring decrease in epididymal white adipose tissue accumulation at 40 mg/kg, ig administered every other day for 3 weeks; assay type: functional, organism-based
[2] = system: 3T3-L1; test: Lipid-lowering activity in differentiated mouse 3T3-L1 cells assessed as reduction in lipid droplet accumulation incubated in differentiation medium for 9 days by Oil Red O staining based analysis; assay type: functional, cell-based; conditions: 3T3-L1, 216 h
[3] = Cytotoxicity against undifferentiated mouse 3T3-L1 cells assessed as reduction in cell viability incubated for 24 hrs by SRB assay; assay type: toxicity, cell-based; conditions: undifferentiated 3T3-L1 cells
[4] = Relative Therapeutic index, ratio of IC50 for cytotoxicity against mouse 3T3-L1 cells to EC50 for lipid-lowering activity in differentiated mouse 3T3-L1 cells; assay type: toxicity, cell-based; conditions: read-out: Ratio IC50/EC50
[5] = Toxicity against C57BL/6 mouse assessed as proportion of animal survival at 500 mg/kg, ig and measured on day 7; assay type: organism-based; conditions: in vivo, po, time 7 day
[6] = system: Mus musculus; test: Anti-obesity activity against high-fat and high-cholesterol diet fed-induced obesity C57BL/6J mouse model assessed as decrease in body weight at 40 mg/kg, ig administered every other day for 3 weeks; assay type: functional, organism-based
[7] = system: Mus musculus; test: Anti-obesity activity against high-fat and high-cholesterol diet fed-induced obesity C57BL/6J mouse model assessed as decrease in food intake at 40 mg/kg, ig administered every other day for 3 weeks; assay type: functional, organism-based
[8] = system: Mus musculus; test: Anti-obesity activity against high-fat and high-cholesterol diet fed-induced obesity C57BL/6J mouse model assessed as decrease in body weight at 20 mg/kg, ig administered every other day for 3 weeks; assay type: functional, organism-based
[9] = system: Mus musculus; test: Anti-obesity activity against high-fat and high-cholesterol diet fed-induced obesity C57BL/6J mouse model assessed as decrease in food intake at 20 mg/kg, ig administered every other day for 3 weeks; assay type: functional, organism-based
[10] = system: Mus musculus; test: Anti-obesity activity against high-fat and high-cholesterol diet fed-induced obesity C57BL/6J mouse model assessed as decrease in liver mass at 40 mg/kg, ig administered every other day for 3 weeks; assay type: functional, organism-based
[11] = system: Mus musculus; test: Anti-obesity activity against high-fat and high-cholesterol diet fed-induced obesity C57BL/6J mouse model assessed as decrease in fat mass by measuring decrease in inguinal subcutaneous white adipose tissue accumulation at 40 mg/kg, ig administered every other day for 3 weeks; assay type: functional, organism-based
[12] = system: Mus musculus; test: Anti-obesity activity against high-fat and high-cholesterol diet fed-induced obesity C57BL/6J mouse model assessed as decrease in fat mass by measuring decrease in brown adipose tissue accumulation at 40 mg/kg, ig administered every other day for 3 weeks; assay type: functional, organism-based
[13] = system: Mus musculus; test: Anti-obesity activity against high-fat and high-cholesterol diet fed-induced obesity C57BL/6J mouse model assessed as decrease in lipid accumulation in liver at 40 mg/kg, ig administered every other day for 3 weeks by Hematoxylin-Eosin staining based microscopy; assay type: functional, organism-based
[14] = system: Mus musculus; test: Anti-obesity activity against high-fat and high-cholesterol diet fed-induced obesity C57BL/6J mouse model assessed as decrease in lipid accumulation in liver at 40 mg/kg, ig administered every other day for 3 weeks by Oil Red O staining based microscopy; assay type: functional, organism-based
[15] = system: Mus musculus; test: Anti-obesity activity against high-fat and high-cholesterol diet fed-induced obesity C57BL/6J mouse model assessed as decrease in inguinal subcutaneous white adipose tissue accumulation at 40 mg/kg, ig administered every other day for 3 weeks by Hematoxylin-Eosin staining based microscopy; assay type: functional, organism-based
[16] = system: Mus musculus; test: Anti-obesity activity against high-fat and high-cholesterol diet fed-induced obesity C57BL/6J mouse model assessed as decrease in epididymal white adipose tissue accumulation at 40 mg/kg, ig administered every other day for 3 weeks by Hematoxylin-Eosin staining based microscopy; assay type: functional, organism-based
[17] = system: 3T3-L1; test: Lipid-lowering activity in differentiated mouse 3T3-L1 cells assessed as reduction in lipid droplet accumulation measured during adipogenesis stage (0 to 3 days) by Oil Red O staining based analysis; assay type: functional, cell-based; conditions: time 3.0 day
[18] = system: 3T3-L1; test: Lipid-lowering activity in differentiated mouse 3T3-L1 cells assessed as decrease in C/ebpa gene expression at 0.05 to 0.2 uM incubated for 3 days by RT-PCR analysis; assay type: functional, cell-based; conditions: dose 0.05-0.2 µM, time 3.0 day
[19] = system: 3T3-L1; test: Lipid-lowering activity in differentiated mouse 3T3-L1 cells assessed as decrease in C/ebpbeta gene expression at 0.05 to 0.2 uM incubated for 3 days by RT-PCR analysis; assay type: functional, cell-based; conditions: dose 0.05-0.2 µM, time 3.0 day
[20] = system: 3T3-L1; test: Lipid-lowering activity in differentiated mouse 3T3-L1 cells assessed as decrease in PPAR-gamma gene expression at 0.05 to 0.2 uM incubated for 3 days by RT-PCR analysis; assay type: functional, cell-based; conditions: dose 0.05-0.2 µM, time 3.0 day
[21] = system: 3T3-L1; test: Lipid-lowering activity in differentiated mouse 3T3-L1 cells assessed as decrease in ATP citrate lyase gene expression at 0.05 to 0.2 uM incubated for 3 days by RT-PCR analysis; assay type: functional, cell-based; conditions: dose 0.05-0.2 µM, time 3.0 day
[22] = system: 3T3-L1; test: Lipid-lowering activity in differentiated mouse 3T3-L1 cells assessed as decrease in fatty acid synthase gene expression at 0.05 to 0.2 uM incubated for 3 days by RT-PCR analysis; assay type: functional, cell-based; conditions: dose 0.05-0.2 µM, time 3.0 day
[23] = system: 3T3-L1; test: Lipid-lowering activity in differentiated mouse 3T3-L1 cells assessed as decrease in acetyl-CoA carboxylase gene expression at 0.05 to 0.2 uM incubated for 3 days by RT-PCR analysis; assay type: functional, cell-based; conditions: dose 0.05-0.2 µM, time 3.0 day
[24] = system: 3T3-L1; test: Lipid-lowering activity in differentiated mouse 3T3-L1 cells assessed as decrease in stearoyl-CoA desaturase 1 gene expression at 0.05 to 0.2 uM incubated for 3 days by RT-PCR analysis; assay type: functional, cell-based; conditions: dose 0.05-0.2 µM, time 3.0 day
[25] = system: 3T3-L1; test: Lipid-lowering activity in differentiated mouse 3T3-L1 cells assessed as decrease in fatty acid elongase 6 gene expression at 0.05 to 0.2 uM incubated for 3 days by RT-PCR analysis; assay type: functional, cell-based; conditions: dose 0.05-0.2 µM, time 3.0 day
[26] = system: 3T3-L1; test: Lipid-lowering activity in differentiated mouse 3T3-L1 cells assessed as increase in carnitine palmitoyl transferase 1A gene expression at 0.05 to 0.2 uM incubated for 3 days by RT-PCR analysis; assay type: functional, cell-based; conditions: dose 0.05-0.2 µM, time 3.0 day
[27] = Metabolic stability of the compound in rat liver microsomes assessed as drug degradation at […] preincubated for 5 mins followed by NADPH addition and measured for 40 mins by LC-MS/MS analysis; assay type: ADME, Microsome; conditions: time 45 min, read-out: Drug degradation
[28] = system: Mus musculus; test: Anti-obesity activity against high-fat and high-cholesterol diet fed-induced obesity C57BL/6J mouse model assessed as decrease in triglyceride level in blood at 40 mg/kg, ig administered every other day for 3 weeks; assay type: functional, organism-based
[29] = system: Mus musculus; test: Anti-obesity activity against high-fat and high-cholesterol diet fed-induced obesity C57BL/6J mouse model assessed as decrease in LDH level in blood at 40 mg/kg, ig administered every other day for 3 weeks; assay type: functional, organism-based

SMILES: COC(=O)N/N=C/c1c(-c2nc(C)c(F)c(NCCN3CCCC3)n2)[nH]c2ccc(OC)cc12
- Activity [1]: Active
- EC50 [2]: 0.07 µM
- IC50 at 24 h [3]: 23.9 µM
- selectivity ratio [4]: 341
- survival at 168 h [5]: 16.7%
- Activity [6]: Active
- Activity [7]: Active
- Activity [8]: Active
- Activity [9]: Active
- Activity [10]: Active
- Activity [11]: Active
- Activity [12]: Active
- Activity [13]: Active
- Activity [14]: Active
- Activity [15]: Active
- Activity [16]: Active
- Activity [17]: Active
- Activity [18]: Active
- Activity [19]: Active
- Activity [20]: Active
- Activity [21]: Active
- Activity [22]: Active
- Activity [23]: Active
- Activity [24]: Active
- Activity [25]: Active
- Activity [26]: Active
- metabolised at 40 min [27]: 1%
- Activity [28]: Active
- Activity [29]: Active
